Results reported in ChEMBL document CHEMBL5038588 (J Med Chem, 2021).
One block for each compound: values may come before it.

Assays:
[1] = system: BaF3; assay: Inhibition of cell proliferation in mouse BaF3 cells expressing BCR-ABL T315I mutant assessed as cell viability at 100 uM measured after 48 hrs by trypan blue based assay (RVB=100%); format: functional; details: read-out: Activity
[2] = Half life in ICR mouse at 5 mg/kg, iv measured upto 24 hrs by LC/MS/MS analysis; format: ADME, organism-based; details: in vivo
[3] = molecular target: Proto-oncogene tyrosine-protein kinase Src (Homo sapiens, UniProt P12931); assay: Inhibition of human c-SRC using poly [Glu:Tyr] as substrate incubated for 30 mins followed by 33P-ATP addition and measured after 2 hrs by liquid scintillation counter method
Proto-oncogene tyrosine-protein kinase Src, sequence (P12931 2-536 limits assumed): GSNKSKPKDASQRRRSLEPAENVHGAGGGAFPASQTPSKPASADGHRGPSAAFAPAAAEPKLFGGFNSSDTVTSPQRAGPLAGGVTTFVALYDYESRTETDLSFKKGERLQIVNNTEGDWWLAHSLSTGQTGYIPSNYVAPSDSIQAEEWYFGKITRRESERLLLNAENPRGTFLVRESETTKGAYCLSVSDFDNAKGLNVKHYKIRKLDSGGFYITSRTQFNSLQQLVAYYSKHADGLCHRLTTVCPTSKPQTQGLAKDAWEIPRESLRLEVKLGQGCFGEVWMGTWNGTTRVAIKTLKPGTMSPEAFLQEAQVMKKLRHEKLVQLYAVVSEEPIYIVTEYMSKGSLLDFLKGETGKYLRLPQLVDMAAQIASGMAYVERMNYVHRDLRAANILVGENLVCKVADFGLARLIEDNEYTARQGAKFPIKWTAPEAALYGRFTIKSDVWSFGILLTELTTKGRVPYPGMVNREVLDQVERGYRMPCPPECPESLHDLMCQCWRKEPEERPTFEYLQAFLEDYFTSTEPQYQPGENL

[4] = Genotoxicity in ICR mouse bone marrow at 25 to 100 mg/kg administered via oral gavage and measured after 24 to 48 hrs by micronucleus assay; format: toxicity, organism-based; details: in vivo, dose lower 25 mg/kg, time lower 24 hrs, dose upper 100 mg/kg, time upper 48 hrs
[5] = Tmax in ICR mouse at 5 mg/kg, iv measured upto 24 hrs by LC/MS/MS analysis; format: ADME, organism-based; details: in vivo
[6] = system: Salmonella typhimurium; assay: Mutagenecity in Salmonella typhimurium TA98 at 0.5 to 312.5 ug/ml incubated for 42 to 72 hrs in presence of S9 fraction by Ames test; format: toxicity, organism-based; details: salmonella enterica subsp. enterica serovar typhimurium, dose lower 0.5 µg/ml, time lower 42 hrs, dose upper 312.5 µg/ml, time upper 72 hrs
[7] = molecular target: Vascular endothelial growth factor receptor 2 (Homo sapiens, UniProt P35968); assay: Inhibition of human KDR/VEGFR2 using poly [Glu:Tyr] as substrate incubated for 30 mins followed by 33P-ATP addition and measured after 2 hrs by liquid scintillation counter method
Vascular endothelial growth factor receptor 2, sequence (P35968 whole entry): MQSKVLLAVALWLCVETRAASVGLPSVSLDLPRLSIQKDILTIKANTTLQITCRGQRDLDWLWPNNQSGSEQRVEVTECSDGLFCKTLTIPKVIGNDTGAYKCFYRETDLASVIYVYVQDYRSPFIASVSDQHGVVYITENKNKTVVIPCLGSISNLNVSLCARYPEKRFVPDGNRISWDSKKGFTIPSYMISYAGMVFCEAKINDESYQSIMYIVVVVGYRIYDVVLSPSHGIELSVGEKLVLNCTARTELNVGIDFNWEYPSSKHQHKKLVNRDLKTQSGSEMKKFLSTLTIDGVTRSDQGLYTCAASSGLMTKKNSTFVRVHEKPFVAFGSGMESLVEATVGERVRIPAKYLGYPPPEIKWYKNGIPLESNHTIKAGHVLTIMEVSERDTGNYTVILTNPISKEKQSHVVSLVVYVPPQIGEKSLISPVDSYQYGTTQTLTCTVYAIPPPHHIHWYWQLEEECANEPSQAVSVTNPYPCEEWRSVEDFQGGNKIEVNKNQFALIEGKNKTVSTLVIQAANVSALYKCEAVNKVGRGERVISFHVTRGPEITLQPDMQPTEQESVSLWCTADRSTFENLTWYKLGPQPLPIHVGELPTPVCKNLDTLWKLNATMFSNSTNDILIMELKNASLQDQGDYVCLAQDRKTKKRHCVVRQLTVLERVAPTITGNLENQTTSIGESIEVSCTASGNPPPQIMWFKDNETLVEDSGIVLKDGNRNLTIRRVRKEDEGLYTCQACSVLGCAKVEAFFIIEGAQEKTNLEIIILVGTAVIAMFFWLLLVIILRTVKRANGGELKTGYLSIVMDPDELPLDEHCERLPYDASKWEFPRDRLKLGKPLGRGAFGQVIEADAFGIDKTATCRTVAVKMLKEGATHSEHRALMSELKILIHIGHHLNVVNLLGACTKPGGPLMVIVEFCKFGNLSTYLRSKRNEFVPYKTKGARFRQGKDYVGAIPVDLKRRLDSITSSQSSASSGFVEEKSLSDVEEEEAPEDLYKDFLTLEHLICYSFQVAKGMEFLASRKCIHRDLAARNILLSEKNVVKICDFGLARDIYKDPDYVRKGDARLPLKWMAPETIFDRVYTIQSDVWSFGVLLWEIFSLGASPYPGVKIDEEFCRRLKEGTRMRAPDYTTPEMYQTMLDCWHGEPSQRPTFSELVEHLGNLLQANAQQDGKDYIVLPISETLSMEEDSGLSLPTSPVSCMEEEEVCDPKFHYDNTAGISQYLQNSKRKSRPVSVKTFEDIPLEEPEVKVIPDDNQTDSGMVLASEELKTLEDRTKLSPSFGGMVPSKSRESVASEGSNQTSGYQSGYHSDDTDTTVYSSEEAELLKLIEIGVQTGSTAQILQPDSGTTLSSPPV

[8] = AUC (0 to infinity) in ICR mouse at 15 mg/kg, po measured upto 24 hrs by LC/MS/MS analysis; format: ADME, organism-based; design: route oral, dose 15 mg/kg, time <=24; details: in vivo
[9] = Tmax in ICR mouse at 15 mg/kg, po measured upto 24 hrs by LC/MS/MS analysis; format: ADME, organism-based; details: in vivo
[10] = system: Salmonella typhimurium; assay: Mutagenecity in Salmonella typhimurium TA102 at 0.5 to 312.5 ug/ml incubated for 42 to 72 hrs in presence of S9 fraction by Ames test; format: toxicity, organism-based; details: salmonella enterica subsp. enterica serovar typhimurium, dose lower 0.5 µg/ml, time lower 42 hrs, dose upper 312.5 µg/ml, time upper 72 hrs
[11] = molecular target: Voltage-gated inwardly rectifying potassium channel KCNH2 (Homo sapiens, UniProt Q12809); assay: Inhibition of hERG; format: toxicity
Voltage-gated inwardly rectifying potassium channel KCNH2, sequence (Q12809 whole entry): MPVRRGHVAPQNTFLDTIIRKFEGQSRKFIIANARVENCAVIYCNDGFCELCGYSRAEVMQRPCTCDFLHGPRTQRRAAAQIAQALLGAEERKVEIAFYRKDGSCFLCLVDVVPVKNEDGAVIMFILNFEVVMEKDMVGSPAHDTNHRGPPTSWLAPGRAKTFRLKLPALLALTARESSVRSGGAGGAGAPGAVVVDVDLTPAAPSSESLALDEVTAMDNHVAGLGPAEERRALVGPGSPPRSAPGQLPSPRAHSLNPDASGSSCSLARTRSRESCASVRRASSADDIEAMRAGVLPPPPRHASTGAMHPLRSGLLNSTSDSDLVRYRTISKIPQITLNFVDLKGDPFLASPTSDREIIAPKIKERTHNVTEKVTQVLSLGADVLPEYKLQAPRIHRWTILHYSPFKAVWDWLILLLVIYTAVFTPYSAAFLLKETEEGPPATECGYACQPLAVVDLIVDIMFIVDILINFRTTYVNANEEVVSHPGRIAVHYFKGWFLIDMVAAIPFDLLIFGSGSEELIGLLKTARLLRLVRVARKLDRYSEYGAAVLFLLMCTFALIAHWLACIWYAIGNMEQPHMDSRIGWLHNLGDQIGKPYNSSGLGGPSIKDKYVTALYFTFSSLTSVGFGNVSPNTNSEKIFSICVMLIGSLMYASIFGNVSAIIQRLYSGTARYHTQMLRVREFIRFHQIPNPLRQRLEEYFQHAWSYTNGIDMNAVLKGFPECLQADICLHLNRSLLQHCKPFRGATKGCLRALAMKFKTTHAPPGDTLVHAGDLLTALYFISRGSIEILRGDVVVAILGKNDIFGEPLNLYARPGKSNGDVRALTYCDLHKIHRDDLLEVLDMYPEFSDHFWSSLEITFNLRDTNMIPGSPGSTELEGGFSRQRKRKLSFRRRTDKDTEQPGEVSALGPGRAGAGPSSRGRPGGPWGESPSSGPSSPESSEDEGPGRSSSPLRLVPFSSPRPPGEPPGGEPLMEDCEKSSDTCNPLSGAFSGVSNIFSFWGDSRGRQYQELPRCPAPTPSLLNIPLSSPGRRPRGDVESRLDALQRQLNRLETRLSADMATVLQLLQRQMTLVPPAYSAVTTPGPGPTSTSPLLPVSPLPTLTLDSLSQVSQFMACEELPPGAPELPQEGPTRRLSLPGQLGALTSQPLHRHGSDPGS

[12] = system: Salmonella typhimurium; assay: Mutagenecity in Salmonella typhimurium TA100 at 0.5 to 312.5 ug/ml incubated for 42 to 72 hrs in presence of S9 fraction by Ames test; format: toxicity, organism-based; details: salmonella enterica subsp. enterica serovar typhimurium, dose lower 0.5 µg/ml, time lower 42 hrs, dose upper 312.5 µg/ml, time upper 72 hrs
[13] = MRT in ICR mouse at 5 mg/kg, iv measured upto 24 hrs by LC/MS/MS analysis; format: ADME, organism-based; details: in vivo
[14] = molecular target: T1, Receptor-type tyrosine-protein kinase FLT3 (Homo sapiens, UniProt P36888); assay: Inhibition of human FLT3 using EAIYAAPFAKKK as substrate incubated for 30 mins followed by 33P-ATP addition and measured after 2 hrs by liquid scintillation counter method
T1 sequence (P36888 whole entry): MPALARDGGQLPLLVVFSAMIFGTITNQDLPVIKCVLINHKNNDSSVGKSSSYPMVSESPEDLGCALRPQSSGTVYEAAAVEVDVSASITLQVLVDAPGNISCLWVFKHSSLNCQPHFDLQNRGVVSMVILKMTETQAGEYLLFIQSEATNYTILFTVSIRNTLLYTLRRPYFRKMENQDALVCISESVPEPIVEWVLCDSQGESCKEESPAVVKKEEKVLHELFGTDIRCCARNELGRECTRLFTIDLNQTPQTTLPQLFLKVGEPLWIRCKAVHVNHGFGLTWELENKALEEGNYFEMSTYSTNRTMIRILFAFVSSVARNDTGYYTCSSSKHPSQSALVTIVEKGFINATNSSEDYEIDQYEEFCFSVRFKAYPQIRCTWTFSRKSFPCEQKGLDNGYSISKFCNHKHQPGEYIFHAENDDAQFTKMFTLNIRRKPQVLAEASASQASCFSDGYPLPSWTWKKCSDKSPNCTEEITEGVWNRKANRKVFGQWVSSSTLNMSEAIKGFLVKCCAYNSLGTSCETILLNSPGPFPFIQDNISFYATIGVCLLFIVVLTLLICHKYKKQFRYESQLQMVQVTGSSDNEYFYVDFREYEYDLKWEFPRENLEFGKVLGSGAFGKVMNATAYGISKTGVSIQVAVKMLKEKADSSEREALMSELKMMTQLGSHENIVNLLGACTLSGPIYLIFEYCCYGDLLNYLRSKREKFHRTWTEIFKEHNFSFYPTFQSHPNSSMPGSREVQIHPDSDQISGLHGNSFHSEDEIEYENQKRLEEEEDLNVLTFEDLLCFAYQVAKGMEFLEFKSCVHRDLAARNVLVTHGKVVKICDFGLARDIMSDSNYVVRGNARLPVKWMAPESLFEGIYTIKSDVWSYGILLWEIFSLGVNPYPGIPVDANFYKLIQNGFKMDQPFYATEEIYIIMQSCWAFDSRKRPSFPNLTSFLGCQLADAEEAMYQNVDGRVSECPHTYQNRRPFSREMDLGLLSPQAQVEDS

[15] = AUC (0 to t) in ICR mouse at 5 mg/kg, iv measured upto 24 hrs by LC/MS/MS analysis; format: ADME, organism-based; design: route intravenous, dose 5 mg/kg, time <=24; details: in vivo
[16] = Cmax in ICR mouse at 15 mg/kg, po measured upto 24 hrs by LC/MS/MS analysis; format: ADME, organism-based; design: route oral, dose 15 mg/kg, time <=24; details: in vivo
[17] = MRT in ICR mouse at 15 mg/kg, po measured upto 24 hrs by LC/MS/MS analysis; format: ADME, organism-based; details: in vivo
[18] = system: Salmonella typhimurium; assay: Mutagenecity in Salmonella typhimurium TA97a at 0.5 to 312.5 ug/ml incubated for 42 to 72 hrs in presence of S9 fraction by Ames test; format: toxicity, organism-based; details: salmonella enterica subsp. enterica serovar typhimurium, dose lower 0.5 µg/ml, time lower 42 hrs, dose upper 312.5 µg/ml, time upper 72 hrs
[19] = Clearance in ICR mouse at 5 mg/kg, iv measured upto 24 hrs by LC/MS/MS analysis; format: ADME, organism-based; details: in vivo
[20] = Oral bioavailability in ICR mouse at 15 mg/kg measured upto 24 hrs by LC/MS/MS analysis; format: ADME, organism-based; details: in vivo
[21] = molecular target: Platelet-derived growth factor receptor alpha (Homo sapiens, UniProt P16234); assay: Inhibition of human PDGFRa using poly [Glu:Tyr] as substrate incubated for 30 mins followed by 33P-ATP addition and measured after 2 hrs by liquid scintillation counter method
Platelet-derived growth factor receptor alpha, sequence (P16234 whole entry): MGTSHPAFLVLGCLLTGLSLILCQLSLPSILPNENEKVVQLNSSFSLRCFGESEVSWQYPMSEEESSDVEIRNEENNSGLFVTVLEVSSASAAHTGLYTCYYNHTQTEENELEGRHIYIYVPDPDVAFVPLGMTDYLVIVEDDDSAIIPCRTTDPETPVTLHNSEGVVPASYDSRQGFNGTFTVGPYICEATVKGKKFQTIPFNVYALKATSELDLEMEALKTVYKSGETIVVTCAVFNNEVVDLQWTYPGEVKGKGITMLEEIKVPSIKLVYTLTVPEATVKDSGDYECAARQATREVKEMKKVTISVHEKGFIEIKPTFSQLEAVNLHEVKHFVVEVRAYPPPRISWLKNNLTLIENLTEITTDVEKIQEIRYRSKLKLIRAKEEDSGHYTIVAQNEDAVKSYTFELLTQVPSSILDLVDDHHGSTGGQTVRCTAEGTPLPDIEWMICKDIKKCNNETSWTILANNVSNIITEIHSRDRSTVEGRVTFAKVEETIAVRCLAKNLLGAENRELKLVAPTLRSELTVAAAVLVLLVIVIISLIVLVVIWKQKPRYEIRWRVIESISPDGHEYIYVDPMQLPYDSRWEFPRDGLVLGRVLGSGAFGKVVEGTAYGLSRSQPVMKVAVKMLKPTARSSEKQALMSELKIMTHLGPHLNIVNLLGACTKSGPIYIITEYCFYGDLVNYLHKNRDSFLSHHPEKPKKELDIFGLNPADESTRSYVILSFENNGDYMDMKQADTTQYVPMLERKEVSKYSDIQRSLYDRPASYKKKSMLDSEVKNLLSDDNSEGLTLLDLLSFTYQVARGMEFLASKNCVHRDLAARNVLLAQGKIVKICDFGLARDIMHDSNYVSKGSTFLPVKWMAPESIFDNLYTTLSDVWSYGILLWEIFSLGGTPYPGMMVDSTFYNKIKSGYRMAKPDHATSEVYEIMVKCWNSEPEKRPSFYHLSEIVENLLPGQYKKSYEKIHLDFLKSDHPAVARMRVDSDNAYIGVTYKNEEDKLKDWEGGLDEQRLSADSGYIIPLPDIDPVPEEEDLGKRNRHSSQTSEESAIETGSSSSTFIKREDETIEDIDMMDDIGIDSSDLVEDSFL

[22] = Half life in ICR mouse at 15 mg/kg, po measured upto 24 hrs by LC/MS/MS analysis; format: ADME, organism-based; details: in vivo
[23] = Volume of distribution at steady state in ICR mouse at 5 mg/kg, iv measured upto 24 hrs by LC/MS/MS analysis; format: ADME, organism-based; details: in vivo, read-out: Vdss
[24] = Toxicity in ICR mouse assessed as maximum tolerated dose administered as single oral dose for 14 days; details: in vivo, time 14 day
[25] = AUC (0 to infinity) in ICR mouse at 5 mg/kg, iv measured upto 24 hrs by LC/MS/MS analysis; format: ADME, organism-based; design: route intravenous, dose 5 mg/kg, time <=24; details: in vivo
[26] = AUC (0 to t) in ICR mouse at 15 mg/kg, po measured upto 24 hrs by LC/MS/MS analysis; format: ADME, organism-based; design: route oral, dose 15 mg/kg, time <=24; details: in vivo
[27] = system: Salmonella typhimurium; assay: Mutagenecity in Salmonella typhimurium TA1535 at 0.5 to 312.5 ug/ml incubated for 42 to 72 hrs in presence of S9 fraction by Ames test; format: toxicity, organism-based; details: salmonella enterica subsp. enterica serovar typhimurium, dose lower 0.5 µg/ml, time lower 42 hrs, dose upper 312.5 µg/ml, time upper 72 hrs
[28] = molecular target: Tyrosine-protein kinase Lyn (Homo sapiens, UniProt P07948); assay: Inhibition of human LYN using poly [Glu:Tyr] as substrate incubated for 30 mins followed by 33P-ATP addition and measured after 2 hrs by liquid scintillation counter method
Tyrosine-protein kinase Lyn, sequence (P07948 whole entry): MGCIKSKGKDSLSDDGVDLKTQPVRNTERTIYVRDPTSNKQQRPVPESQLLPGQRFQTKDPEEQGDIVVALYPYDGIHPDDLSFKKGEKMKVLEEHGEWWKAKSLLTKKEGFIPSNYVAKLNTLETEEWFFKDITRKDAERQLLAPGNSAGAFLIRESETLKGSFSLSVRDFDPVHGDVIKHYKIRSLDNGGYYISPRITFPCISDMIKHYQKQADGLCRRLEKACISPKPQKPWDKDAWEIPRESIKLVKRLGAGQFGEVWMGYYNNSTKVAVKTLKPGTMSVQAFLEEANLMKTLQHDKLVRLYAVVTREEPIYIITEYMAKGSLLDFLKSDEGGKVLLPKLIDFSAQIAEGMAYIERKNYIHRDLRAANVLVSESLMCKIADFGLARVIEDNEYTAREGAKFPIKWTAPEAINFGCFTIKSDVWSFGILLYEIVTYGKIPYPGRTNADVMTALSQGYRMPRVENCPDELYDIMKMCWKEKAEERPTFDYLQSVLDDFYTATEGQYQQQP

[29] = Cmax in ICR mouse at 5 mg/kg, iv measured upto 24 hrs by LC/MS/MS analysis; format: ADME, organism-based; design: route intravenous, dose 5 mg/kg, time <=24; details: in vivo
[30] = system: BaF3; assay: cells; details: Mus musculus, BaF3, 48 h
[31] = system: K562; assay: cells; details: Homo sapiens, K562, 72 h
[32] = system: U-937; assay: Cytotoxicity against human U-937 cells assessed as inhibition of cell growth measured after 72 hrs by MTT assay; format: functional, cell-based; details: U-937, 72 h
[33] = system: Jurkat; assay: Cytotoxicity against human Jurkat cells assessed as inhibition of cell growth measured after 72 hrs by MTT assay; format: functional, cell-based
[34] = system: BaF3; assay: cells; details: Mus musculus, BaF3, 72 h
[35] = system: KU812 cell line; assay: Cytotoxicity against human KU812 cells assessed as inhibition of cell growth measured after 72 hrs by MTT assay; format: functional, cell-based; details: KU812, 72 h
[36] = system: K562; details: Homo sapiens
[37] = system: BaF3; assay: animal or person; details: Mus musculus, BaF3, po, 360 h, read-out: TGI
[38] = Toxicity in BALB/c nude mouse xenografted with BaF3 cells expressing BCR-ABL T315I mutant assessed as effect on body weight at 2.5 to 10 mg/kg, po administered once daily for 15 days; format: organism-based; details: in vivo, 360 h, dose 2.5-10 mg/kg, time 15 day

SMILES: CN1CCN(Cc2ccc(NC(=O)N3CCCC(C#Cc4cnc5cccnn45)C3)cc2C(F)(F)F)CC1 (stereo not drawn)
viability at 100 µM [1]: 84.3%

SMILES: Cc1ccc(C(=O)Nc2ccc3c(c2)C(F)(F)C[C@@H]3N2CCN(C)CC2)cc1C#Cc1cnc2cccnn12
half-life [2]: 5.3 h | IC50 [3]: < 10 nM | Activity [4]: Non-Toxic | Tmax [5]: 4.8 min | Activity [6]: Non-Toxic | IC50 [7]: < 10 nM | AUC(0-inf) [8]: 1440 ng·h/mL | Tmax [9]: 5 h | Activity [10]: Non-Toxic | IC50 [11]: 11100 nM | Activity [12]: Non-Toxic | MRT [13]: 5.11 h | IC50 [14]: < 10 nM | AUC(0-t) at 24 h [15]: 1390 ng·h/mL | Cmax [16]: 129 ng/mL | MRT [17]: 8.22 h | Activity [18]: Non-Toxic | clearance [19]: 62 mL/min/kg | bioavailability [20]: 32% | IC50 [21]: < 10 nM | half-life [22]: 4.61 h | Vd [23]: 18.1 L/kg | MTD at 336 h [24]: 100 mg/kg | AUC(0-inf) [25]: 1500 ng·h/mL | AUC(0-t) at 24 h [26]: 1390 ng·h/mL | Activity [27]: Non-Toxic | IC50 [28]: < 10 nM | Cmax [29]: 1470 ng/mL

IC50 [30]: > 100 nM | IC50 [31]: 10.4 nM | IC50 [34]: 62.5 nM
SMILES: Cc1ccc(C(=O)Nc2ccc3c(c2)C(F)(F)C[C@H]3N2CCN(C)CC2)cc1C#Cc1cnc(NC2CC2)nc1
IC50 [32]: 465 nM | IC50 [33]: 400 nM | IC50 [35]: 5.2 nM

SMILES: Cc1cn(-c2ccc3nc(-c4ccc(C)c(C#Cc5cnc6cccnn56)c4)[nH]c3c2)cn1
viability at 100 µM [1]: 94.1%

SMILES: CN1CCN(Cc2ccc3nc(-c4ccc(Cl)c(C#Cc5cnc(NC6CC6)nc5)c4)[nH]c3c2)CC1
viability at 100 µM [1]: 105%

SMILES: CN1CCN(Cc2ccc3nc(-c4ccc(Cl)c(C#Cc5ccc(NC6CC6)nn5)c4)[nH]c3c2)CC1
viability at 100 µM [1]: 74.8%

SMILES: CC(C)Nc1ccc(C#Cc2cc(-c3nc4ccc(CN5CCN(C)CC5)cc4[nH]3)ccc2Cl)nn1
viability at 100 µM [1]: 100%

half-life [2]: 3.28 h | Tmax [5]: 4.8 min | AUC(0-inf) [8]: 432 ng·h/mL | Tmax [9]: 1.5 h | MRT [13]: 4.29 h | AUC(0-t) at 24 h [15]: 497 ng·h/mL | Cmax [16]: 70 ng/mL | IC50 [34]: 0.9 nM | MRT [17]: 5.25 h | clearance [19]: 161 mL/min/kg | IC50 [36]: 10 nM | bioavailability [20]: 27% | half-life [22]: 2.84 h | Vd [23]: 41 L/kg | AUC(0-inf) [25]: 528 ng·h/mL | AUC(0-t) at 24 h [26]: 363 ng·h/mL | Cmax [29]: 270 ng/mL
SMILES: Cc1ccc(C(=O)Nc2ccc(CN3CCN(C)CC3)c(C(F)(F)F)c2)cc1C#Cc1cnc2cccnn12 [PONATINIB]
viability at 100 µM [1]: 2.8% | IC50 [32]: 246 nM | IC50 [33]: 295 nM | IC50 [35]: 0.1 nM | inhibition in vivo at 5 mg/kg [37]: 53%

SMILES: Cc1ccc(C(=O)Nc2ccc3c(c2)C(F)(F)C[C@@H]3N2CCN(C)CC2)cc1C#Cc1cnc2cccnn12.Cl
Activity [38]: Non-Toxic

SMILES: Cc1ccc(-c2nc3ccc(CN4CCN(C)CC4)cc3[nH]2)cc1C#Cc1cnc2cccnn12
viability at 100 µM [1]: 84.5%
